From patent US7709526B2, “Use of cyclolignans and new cyclolignans” (Biovitrum AB, priority 2001, dated 2010)
Where two headings read alike, the source gives them in different places. Values belong to the compound of their own block, whether it stands above or below them.

Tests used:
[1] = system: HL60/Nov acute myeloid leukemia cells (cytostatic-resistant); test: Viability of leukemia cells, HL60/Nov; format: cell-based, human; settings: read-out: IC50 for viability of leukemia cell lines
Procedure: (§1) The human chronic myeloid leukemia K562/S and K562/Vcr30 lines and the acute myeloid leukemia cell lines HL60/0 and HL60/Nov were obtained from ATCC. The K562/S and HL60/0 are wild type (non-resistant) cells, whereas K562/Vcr30 and HL60/Nov are cytostatic-resistant sublines. All leukemia cell lines were cultured in RPMI 1640 medium supplemented with 10% fetal bovine serum and with 2 mM glutamine, 1% benzyl-penicillin and streptomycin. The cells were grown in tissue culture flasks maintained at 95% air/5% CO2 atmosphere at 37° C. in a humidified incubator. For the experiments 25,000 cells were cultured in 60-mm plastic dishes or 96-well plastic plates. The experiments on leukemia cells were performed in collaboration with Associate professor Sigurd Vitols, Department of Pharmacology, Karolinska Hospital (Stockholm, Sweden).
(§2) Cell proliferation kit II (Roche Inc.) is based on calorimetric change of the yellow tetrazolium salt XTT in orange formazan dye by the respiratory chain of viable cells (Roehm, N W, et al., J Immunol Methods 142:257-265, 1991). Cells seeded at a concentration of 5000/well in 100 μl medium in a 96-well plate were treated with different drugs in the given concentration. After 24 or 48 h the cells were incubated, according to the manufacturer's protocol, with XTT labelling mixture. After 4 h the formazan dye is quantified using a scanning multiwell spectrophotometer with a 495-nm filter. The absorbance is directly correlated with number of viable cells. The standard absorbance curve was drawn by means of untreated cells seeded at a concentration of from 1000 to 10 000 cells/well with an increasing rate of 1000 cells/well. All standards and experiments were performed in triplicates.
(§3) The leukemia cell lines K562/S, K562/Vcr 30, HL60/0 and HL60/Nov were proven to express the IGF-1R. This was assayed by Western blotting analysis, as described in Methods and Experiment 1 and 2. The 4 leukemia cell lines were seeded in 96-well plates (medium volume in a well was 100 μl), in RPMI40 medium supplemented with fetal calf serum. After 24 h podophyllotoxin, deoxypodophyllotoxin and other derivatives were added at different concentrations for 72 h. Cell viability was then assayed (see above). IC50 values for each inhibitor and cell lines are shown below (Table 5). The results are based on 3 different experiments.

[2] = molecular target: T1, IGF-1R (Homo sapiens, UniProt P08069); test: IGF-1R phosphorylation/autophosphorylation in intact FM55 melanoma cells (immunoprecipitation, Western blotting, OD); format: cell-based; set-up: The cells were then isolated and subjected to immuno-precipitation of the IGF-1R; endogenous in cells; host or cells: FM55 melanoma cells; settings: for Level of IGF-1R phosphorylation in intact cells: OD, control cells = 100%
Procedure: The isolated cells were lyzed in 10 ml ice-cold PBSTDS containing protease inhibitors (Carlberg, M., et al., J Biol Chem 271:17453-17462, 1996). 50 μl protein A or G agarose was added in 1 ml sample and incubated for 15 min at 4° C. on an orbital shaker. After centrifugation for 10 min at 10,000 r/min at 4° C. the supernatant was saved. The protein content was determined by a dye-binding assay with a reagent purchased from Bio-Rad. Bovine serum albumin was used as a standard. 15 μl Protein G Plus agarose and 5 μl anti-IGF-1R were added. After a 3 h incubation at 4° C. on an orbital shaker the precipitate was collected by pulse centrifugation in a micro centrifuge at 14,000×g for 10 s. The supernatant was discarded and the pellet was washed 3 times with PBSTDS.
Protein samples were solved in a 2×-sample buffer containing Laemmli buffer and 0.5% […] and boiled for 5 min at 96° C. Samples were separated by SDS-PAGE with a 4% stacking gel and 7.5% separation gel. Molecular weight markers (Bio Rad, Sweden) were run simultaneously in all experiments.
Following SDS-PAGE the proteins were transferred overnight to nitro-cellulose membranes (Hybond, Amersham, UK) and then blocked for 1 h at room temperature in a solution of 4% skimmed milk powder and 0.02% Tween 20 in PBS, pH 7.5. Incubations with the primary antibodies were performed for 1 h at room temperature, followed by 3 washes with PBS with Tween and incubation with the second antibody for 1 h room temperature. After another 3 washes the membranes were incubated with Streptavidin-labelled horseradish peroxidase for 30 min and then detected using Amersham ECL system (Amersham, UK) The films were scanned by Fluor-S (BioRad).
Melanoma cells (line FM55) were seeded in 6-cm dishes, at a concentration of 10,000 cells/cm^2 in Minimal Essential Medium supplemented with 10% fetal calf serum (FCS). […] Treatment with 0 μM represents untreated controls. The cells were then isolated and subjected to immuno-precipitation of the IGF-1R. The immunoprecipitates, containing purified IGF-1R, were fractionated by gel electrophoresis. Phosphorylation of IGF-1R was detected by an anti-phosphotyrosine antibody using Western blotting. The obtained signals represent phosphorylated IGF-1R and the intensity of signals represents amounts of phosphorylated IGF-1R. Details of the methods used are described above. The intensities are quantified by a scanner, which measures the optical density (OD) of the signals. For the control cells the OD is set at 100%. The blank (OD 0%) represents the background. The results given in Table 1 below are mean values of 3 experiments.
FM 55 melanoma cells were cultured in the same way as described in Experiment 1. When reaching a density of 65,000 cells/cm^2 in the dishes, they were treated for 1 h with 0.05 μM podophyllotoxin, deoxypodophyllotoxin, acetylpodophyllotoxin, epipodophyllotoxin, 4′-demethyl-podophyllotoxin and podophyllotoxone. The cells were then harvested for assay and quantification of IGF-1R autophosphorylation as described above. The values shown in Table 2 represent means of 3 experiments.
Target sequence in this assay (P08069 31-1367): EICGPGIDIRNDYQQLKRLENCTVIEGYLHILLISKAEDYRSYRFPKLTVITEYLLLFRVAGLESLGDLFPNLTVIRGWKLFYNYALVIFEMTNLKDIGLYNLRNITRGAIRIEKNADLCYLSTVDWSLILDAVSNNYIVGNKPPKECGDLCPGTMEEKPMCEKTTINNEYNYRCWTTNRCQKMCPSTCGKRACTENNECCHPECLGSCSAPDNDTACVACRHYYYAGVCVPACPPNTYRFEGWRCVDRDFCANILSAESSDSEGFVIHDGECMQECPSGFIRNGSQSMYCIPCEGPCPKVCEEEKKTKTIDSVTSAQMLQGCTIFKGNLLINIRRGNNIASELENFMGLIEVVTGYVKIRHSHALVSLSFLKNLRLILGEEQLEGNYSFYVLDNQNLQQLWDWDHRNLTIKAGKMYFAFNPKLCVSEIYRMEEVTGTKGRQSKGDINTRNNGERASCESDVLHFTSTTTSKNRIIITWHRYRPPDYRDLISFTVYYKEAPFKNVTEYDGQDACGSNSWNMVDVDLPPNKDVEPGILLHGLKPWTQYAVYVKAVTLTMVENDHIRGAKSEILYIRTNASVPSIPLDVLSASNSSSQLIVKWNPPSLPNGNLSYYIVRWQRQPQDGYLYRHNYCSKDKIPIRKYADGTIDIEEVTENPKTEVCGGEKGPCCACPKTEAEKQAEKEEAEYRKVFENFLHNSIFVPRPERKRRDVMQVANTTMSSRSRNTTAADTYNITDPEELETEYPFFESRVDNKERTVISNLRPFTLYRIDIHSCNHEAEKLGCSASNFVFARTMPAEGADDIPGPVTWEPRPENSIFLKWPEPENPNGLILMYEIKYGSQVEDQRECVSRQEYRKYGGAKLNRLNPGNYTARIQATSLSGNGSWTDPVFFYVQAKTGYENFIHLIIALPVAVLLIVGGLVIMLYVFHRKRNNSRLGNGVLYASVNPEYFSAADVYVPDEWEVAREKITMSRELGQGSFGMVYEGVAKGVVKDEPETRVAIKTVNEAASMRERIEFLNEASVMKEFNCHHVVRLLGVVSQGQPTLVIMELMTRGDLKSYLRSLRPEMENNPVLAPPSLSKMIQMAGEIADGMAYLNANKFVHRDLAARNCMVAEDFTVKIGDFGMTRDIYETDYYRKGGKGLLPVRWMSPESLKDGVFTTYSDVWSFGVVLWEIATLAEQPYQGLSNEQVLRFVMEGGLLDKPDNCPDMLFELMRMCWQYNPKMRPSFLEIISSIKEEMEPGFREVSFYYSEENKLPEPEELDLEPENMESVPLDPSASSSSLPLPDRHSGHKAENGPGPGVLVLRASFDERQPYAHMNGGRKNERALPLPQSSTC

[3] = system: K562/Vcr30 chronic myeloid leukemia cells (cytostatic-resistant); test: Viability of leukemia cells, K562/Vcr30; format: cell-based, human; settings: K562/Vcr30, 72 h, read-out: IC50 for viability of leukemia cell lines
Procedure: as §1, §2, §3

[4] = system: HL60 acute myeloid leukemia cells; test: Viability of leukemia cells, HL60; format: cell-based, human; settings: HL60, 72 h, read-out: IC50 for viability of leukemia cell lines
Procedure: as §1, §2, §3

[5] = system: K562/S chronic myeloid leukemia cells; test: Viability of leukemia cells, K562/S; format: cell-based, human; settings: 72 h, read-out: IC50 for viability of leukemia cell lines
Procedure: as §1, §2, §3

[6] = system: FM55 melanoma cells; test: Cell viability (XTT), FM55; format: cell-based, human
Procedure: as §2
(§4) 5 different types of cell lines were seeded in 96-well plates (medium volume in a well was 100 μl), at a concentration of 10,000 cells/cm^2 in Minimal Essential Medium supplemented with fetal calf serum. When the cells had reached a concentration of 65,000 cells/cm^2, they were treated with different doses of podophyllotoxin and deoxypodophyllotoxin for 48 h. Cell viability was then assayed (see above). IC50 values for each inhibitor and cell line, calculated as the concentration, resulting in a 50% decrease in cell survival, are shown below. The results are based on 4 different experiments.
FM55 melanoma cells were cultured in the same way as described in Experiment 3 and were treated with different doses of podophyllotoxin analogues as described in Experiment 3.

[7] = system: rats; settings: cited from earlier work; for LD50 in rats, fold higher than podophyllotoxin: relative to podophyllotoxin
[8] = Water solubility; format: physicochemical
[9] = system: MCF-7 breast cancer cells; test: Cell viability (XTT), MCF-7; format: cell-based, human; settings: 48 h
Procedure: as §2
as §4, with “IC50 values for each inhibitor and cell line, calculated as the concentration, resulting in a 50% decrease in cell survival, are shown below. The results are based on 4 different experiments.” left out

[10] = system: SK-MEL-28 melanoma cells; test: Cell viability (XTT), SK-MEL-28; format: cell-based, human; settings: 48 h
Procedure: as §2
as §4, with “IC50 values for each inhibitor and cell line, calculated as the concentration, resulting in a 50% decrease in cell survival, are shown below. The results are based on 4 different experiments.” left out

[11] = system: microtubules; settings: cell free systems; cited from earlier work
[12] = molecular target: T2, IGF-1R beta-subunit (Homo sapiens, UniProt P08069); settings: melanoma cells, 15 microM; cited from earlier work
T2 construct: host or cells: melanoma cells

[13] = system: malignant cells; test: Cell death in malignant cells; format: cell-based
[14] = system: microtubuli; settings: relative to podophyllotoxin; cited from earlier work
[15] = molecular target: T1, IGF-1R; test: Effect on IGF-1R (method not given)
Target sequence in this assay (P08069 31-1367, species assumed): as the sequence (P08069 31-1367) above

[16] = molecular target: insulin receptor kinase (Homo sapiens, UniProt P06213); settings: cited from earlier work
[17] = molecular target: isolated IGF-1R kinase (Homo sapiens, UniProt P08069); settings: cited from earlier work
[18] = FM55 cells, 0.05 μM, 1 h, podophyllotoxin = 1, mean of 3
[19] = FM55, Experiment 4 (Table 4), read-out: IC50 for viability of FM55 cells
[20] = FM55 cells, 1 μM, 1 h, mean of 3
[21] = FM55 cells, 15 μM, 1 h, mean of 3
[22] = FM55 cells, 60 μM, 1 h, mean of 3

Sequence of isolated IGF-1R kinase (P08069 31-1367): as above
T2 sequence (P08069 31-1367): as above
Sequence of insulin receptor kinase (P06213 28-1382): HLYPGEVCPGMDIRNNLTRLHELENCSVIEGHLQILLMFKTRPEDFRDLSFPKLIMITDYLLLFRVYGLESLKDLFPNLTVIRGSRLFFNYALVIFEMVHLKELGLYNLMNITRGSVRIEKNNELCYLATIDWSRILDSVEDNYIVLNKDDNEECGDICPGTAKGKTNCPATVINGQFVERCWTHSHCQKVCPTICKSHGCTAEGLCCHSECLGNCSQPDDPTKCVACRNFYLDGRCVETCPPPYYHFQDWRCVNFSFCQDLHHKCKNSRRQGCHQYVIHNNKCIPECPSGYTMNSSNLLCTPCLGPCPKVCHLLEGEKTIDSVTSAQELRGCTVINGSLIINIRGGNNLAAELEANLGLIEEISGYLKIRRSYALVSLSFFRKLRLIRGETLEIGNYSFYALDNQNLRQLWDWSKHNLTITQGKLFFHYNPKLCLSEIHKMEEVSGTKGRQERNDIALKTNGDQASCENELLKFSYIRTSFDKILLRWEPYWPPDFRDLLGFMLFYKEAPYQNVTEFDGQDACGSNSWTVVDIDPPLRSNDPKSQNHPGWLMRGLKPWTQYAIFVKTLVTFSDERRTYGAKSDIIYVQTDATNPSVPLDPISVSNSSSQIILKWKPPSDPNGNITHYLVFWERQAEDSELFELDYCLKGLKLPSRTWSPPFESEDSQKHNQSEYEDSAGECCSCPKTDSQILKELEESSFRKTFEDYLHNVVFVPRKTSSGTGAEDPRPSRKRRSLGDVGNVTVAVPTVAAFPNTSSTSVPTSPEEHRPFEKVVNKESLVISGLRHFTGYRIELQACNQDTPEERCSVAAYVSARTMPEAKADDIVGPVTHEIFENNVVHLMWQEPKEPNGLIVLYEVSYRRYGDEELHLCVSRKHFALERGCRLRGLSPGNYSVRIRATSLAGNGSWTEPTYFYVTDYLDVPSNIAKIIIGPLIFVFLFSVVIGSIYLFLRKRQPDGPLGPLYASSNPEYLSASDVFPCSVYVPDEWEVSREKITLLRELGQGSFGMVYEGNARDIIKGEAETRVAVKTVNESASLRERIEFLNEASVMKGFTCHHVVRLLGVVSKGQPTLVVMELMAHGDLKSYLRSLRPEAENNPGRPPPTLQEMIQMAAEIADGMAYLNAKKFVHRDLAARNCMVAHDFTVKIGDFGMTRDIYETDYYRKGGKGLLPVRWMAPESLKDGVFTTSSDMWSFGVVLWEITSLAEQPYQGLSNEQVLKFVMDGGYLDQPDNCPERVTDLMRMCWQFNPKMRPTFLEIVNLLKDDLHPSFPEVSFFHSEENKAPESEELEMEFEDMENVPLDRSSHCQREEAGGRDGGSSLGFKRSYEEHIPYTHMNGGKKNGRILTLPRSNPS

Compound: COc1cc([C@@H]2c3cc4c(cc3[C@H](O)[C@H]3COC(=O)[C@H]23)OCO4)cc(OC)c1O [4′-demethylpodophyllotoxin]
IC50 ([1]; 72 h): 18 nM | Inhibitory effect on IGF-1R autophosphorylation in intact cells in relation to podophyllotoxin, Relative potency [2, 18]: 0.5 | IC50 [3]: 50 nM | IC50 [4]: 20 nM | IC50 [5]: 22 nM | IC50 [6, 19]: 40 nM

Compound: COc1cc([C@@H]2c3cc4c(cc3[C@H](OC(C)=O)[C@H]3COC(=O)[C@H]23)OCO4)cc(OC)c1OC [Acetylpodophyllotoxin, acetylpodophyllotoxin]
IC50 ([1]; 72 h): 46 nM | Inhibitory effect on IGF-1R autophosphorylation in intact cells in relation to podophyllotoxin, Relative potency [2]: 1.3 | inhibition of IGF-1R phosphorylation (in words) ([2]; FM55 cells, 0.05 μM, 1 h): potent inhibitors | IC50 [3]: 140 nM | IC50 [4]: 48 nM | IC50 [5]: 80 nM | IC50 [6, 19]: 30 nM | LD50 in rats [7]: 185 mg/kg

Compound: COc1cc([C@@H]2c3cc4c(cc3C[C@H]3COC(=O)[C@@H]32)OCO4)cc(OC)c1OC [Deoxypodophyllotoxin, deoxypodophyllotoxin]
IC50 ([1]; 72 h): 2 nM | inhibition of IGF-1R phosphorylation (in words) ([2]; FM55 cells, 0.05 μM, 1 h): potent inhibitors | Inhibitory effect on IGF-1R autophosphorylation in intact cells in relation to podophyllotoxin, Relative potency [2, 18]: 0.8 | IC50 [3]: 4 nM | IC50 [4]: 3 nM | water solubility [8]: about 0.01 mM | IC50 [5]: 3 nM | IC50 [9]: 30 nM | IC50 [6, 19]: 40 nM | IC50 ([6]; FM55, melanoma, 48 h (Table 3), read-out: IC50 for cell viability): 40 nM | IC50 [10]: 40 nM | LD50 in rats, fold higher than podophyllotoxin [7]: > 15 fold

Compound: COc1cc([C@@H]2c3cc4c(cc3[C@@H](O)[C@H]3COC(=O)[C@H]23)OCO4)cc(OC)c1OC [Epipodophyllotoxin, epipodophyllotoxin]
IC50 ([1]; Homo sapiens, HL-60, 72 h): 90 nM | Inhibitory effect on IGF-1R autophosphorylation in intact cells in relation to podophyllotoxin, Relative potency [2, 18]: 0.5 | IC50 ([3]; Homo sapiens): 450 nM | IC50 ([4]; Homo sapiens, HL-60): 127 nM | IC50 ([5]; Homo sapiens): 195 nM | LD50 in rats [7]: > 200 mg/kg

Compound: COc1cc([C@@H]2c3cc4c(cc3[C@@H](O[C@@H]3O[C@@H]5CO[C@@H](C)O[C@H]5[C@H](O)[C@H]3O)[C@H]3COC(=O)[C@H]23)OCO4)cc(OC)c1O [Etoposide, etoposide]
effect on microtubules [11]: no effect on microtubules

Level of IGF-1R phosphorylation in intact cells [2, 20]: 100% | Level of IGF-1R phosphorylation in intact cells [2, 21]: 96% | Level of IGF-1R phosphorylation in intact cells [2, 22]: 35% | effect on IGF-1R phosphorylation (in words) ([2]; FM55 cells, 1, 15, 60 μM, genistein statement at 60 μM): partial inhibitory effect
Compound: O=c1c(-c2ccc(O)cc2)coc2cc(O)cc(O)c12 [Genistein, genistein]

Compound: COc1cc([C@@H]2c3cc4c(cc3C(=O)[C@H]3COC(=O)[C@H]23)OCO4)cc(OC)c1OC [Podophyllotoxone, podophyllotoxone]
IC50 ([1]; 72 h): > 500 nM | Inhibitory effect on IGF-1R autophosphorylation in intact cells in relation to podophyllotoxin, Relative potency [2]: 0.3 | IC50 [3]: > 500 nM | IC50 [4]: > 500 nM | IC50 [5]: > 500 nM

Level of IGF-1R phosphorylation in intact cells [2, 20]: 95% | Level of IGF-1R phosphorylation in intact cells [2, 21]: 20% | Level of IGF-1R phosphorylation in intact cells [2, 22]: 10%
Compound: CC/C(=C(\c1ccccc1)c1ccc(OCCN(C)C)cc1)c1ccccc1 [Tamoxifen, tamoxifen]
tyrosine phosphorylation of the IGF-1R beta-subunit [12]: efficiently blocked

Compound: COc1cc([C@@H]2c3cc4c(cc3[C@H](O)[C@H]3COC(=O)[C@@H]23)OCO4)cc(OC)c1OC [picropodophyllin]
cell death in malignant cells (in words) [13]: equipotent to podophyllotoxin | affinity for microtubuli, fold lower than podophyllotoxin [14]: 50 fold | effect on IGF-1R / inhibition of IGF-1R activity (in words) [15]: equipotent to podophyllotoxin | LD50 in rats, fold higher than podophyllotoxin [7]: more than 35 fold

Compound: COc1cc(C2c3cc4c(cc3C(OC3OC5COC(c6ccccc6)OC5C(O)C3O)C3COC(=O)C23)OCO4)cc(OC)c1OC [podophyllotoxin-4,6-O-benzylidene-β-D-glucopyranoside]
effect on IGF-1R / inhibition of IGF-1R activity (in words) [15]: completely disappeared

Compound: N#C/C(=C\c1ccc(O)c(O)c1)C(=O)c1ccc(O)c(O)c1 [tyrphostin AG 538]
effect on insulin receptor kinase [16]: also blocked the insulin receptor kinase | IC50 [17]: 400 nM
